Reference: patent US11286234B2, “Phenyl urea derivatives as N-formyl peptide receptor modulators” (Allergan, Inc., priority 2016, dated 2022)

Key:
FPR2 = biological target: T1, FPR2 (Homo sapiens, UniProt P25090); experiment: Compound-induced calcium activity (FLIPR Tetra) in CHO-Gα16 cells stably expressing FPR2; type: cell-based; settings: for EC50: calcium activity, tested 0.61 to 10,000 nM, read-out: FPR2 Ga16-CHO EC50; for Emax: efficacy value in brackets, read-out: FPR2 Ga16-CHO (% eff)
T1 construct: expressed in transfected cells
T1 sequence (P25090 1-351): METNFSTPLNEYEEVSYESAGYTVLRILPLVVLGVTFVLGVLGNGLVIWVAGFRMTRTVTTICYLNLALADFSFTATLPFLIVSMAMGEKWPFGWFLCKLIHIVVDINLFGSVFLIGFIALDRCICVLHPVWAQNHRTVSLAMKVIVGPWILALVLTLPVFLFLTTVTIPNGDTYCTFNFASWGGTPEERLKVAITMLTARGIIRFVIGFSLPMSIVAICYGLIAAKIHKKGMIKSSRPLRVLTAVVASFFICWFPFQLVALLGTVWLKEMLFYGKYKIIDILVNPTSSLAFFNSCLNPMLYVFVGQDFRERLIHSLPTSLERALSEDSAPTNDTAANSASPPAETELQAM
Experimental: (§1) CHO-Gα16 cells stably expressing FPR1 or FPR2 were cultured in: Ham's F12 nutrient media, 10% fetal bovine serum, 1% PSA (penicillin, streptomycin, amphotericin B antiobiotic/antimycotic), 400 μg/ml geneticin and 50 μg/ml hygromycin. In general, the day before the experiment, 18,000 cells/well were plated in a 384-well clear bottom poly-D-lysine coated plate. The following day the screening compound-induced calcium activity was assayed on the FLIPR^Tetra. The drug plates were prepared in 384-well microplates using the EP3 and the MultiPROBE robotic liquid handling systems. Compounds were tested at concentrations ranging from 0.61 to 10,000 nM. Results are expressed as EC50 (nM) and efficacy values.

FPR1 = biological target: T2, FPR1 (Homo sapiens, UniProt P21462); experiment: Compound-induced calcium activity (FLIPR Tetra) in CHO-Gα16 cells stably expressing FPR1; type: cell-based; settings: for EC50 / Emax: CHO-Gα16 cells stably expressing FPR1; for EC50: calcium activity, tested 0.61 to 10,000 nM, read-out: FPR1 Ga16-CHO EC50; for Emax: efficacy value in brackets, read-out: FPR1 Ga16-CHO (% eff); for Ratio FPR2:FPR1 (EC50): ratio of the EC50 for agonizing FPR2 to the EC50 for agonizing FPR1
T2 construct: expressed in transfected cells
T2 sequence (P21462 1-350): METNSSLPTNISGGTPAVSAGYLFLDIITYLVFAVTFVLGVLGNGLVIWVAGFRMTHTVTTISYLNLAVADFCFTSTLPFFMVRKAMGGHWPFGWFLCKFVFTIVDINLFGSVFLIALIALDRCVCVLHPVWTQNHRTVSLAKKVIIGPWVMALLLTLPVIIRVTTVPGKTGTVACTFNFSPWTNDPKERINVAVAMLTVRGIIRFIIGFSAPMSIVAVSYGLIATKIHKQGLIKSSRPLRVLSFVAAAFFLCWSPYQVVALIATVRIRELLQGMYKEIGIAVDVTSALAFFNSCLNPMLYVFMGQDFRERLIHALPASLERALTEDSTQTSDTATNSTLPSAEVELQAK
Experimental: as §1

Row | EC50 (FPR2) [nM] | Emax (FPR2) [%] | EC50 (FPR1) [nM] | Emax (FPR1) [%] | Ratio FPR2:FPR1 (EC50) (FPR1) | Structure (SMILES)
1 | 1000 | 43 | 156 | 95 | 6.4 | CC(C)CC(CNC(=O)Nc1ccc(Br)cc1)C(=O)NCC(=O)O (centres unmarked) [Compound 36, ({2-[({[(4-bromophenyl)amino]carbonyl}amino)methyl]-4-methylpentanoyl}amino)acetic acid]
2 | 12 | 104 | 55 | 96 | 0.22 | CC(C)CC(CNC(=O)Nc1ccc(Br)cc1)C(=O)N(C)CC(=O)O (centres unmarked) [Compound 37, 2-(2-((3-(4-bromophenyl)ureido)methyl)-N,4-dimethylpentanamido)acetic acid]
3 | 2170 | 80 | 2600 | 77 | 0.83 | COC(=O)C(CNC(=O)CNC(=O)Nc1ccc(Br)cc1)CC(C)C (centres unmarked) [Compound 38]
4 | 1680 | 77 | 19 | 96 | 88 | CC(C)CC(CNC(=O)CNC(=O)Nc1ccc(Br)cc1)C(=O)O (centres unmarked) [Compound 39, 2-((2-(3-(4-Bromophenyl)ureido)acetamido)methyl)-4-methylpentanoic acid]
